Results: patent publication US20250215012A1, “IKZF2 DEGRADERS AND USES THEREOF” (REGENTS OF THE UNIVERSITY OF MICHIGAN, priority 2022, published 2025)

Biological target: IKZF2 (Homo sapiens (Human), UniProt Q96SW2+Q9UKS7)
Assay: IKZF2 HiBiT Assay (Jurkat-IKZF2-HiBiT cell line)
Type: cell-based
Settings: Jurkat-IKZF2-HiBiT cells, 24 hours; for DC50: read-out: HiBit assay degradation analysis DC50; for Dmax: read-out: HiBit assay degradation analysis Dmax
Summary of the method: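 Jurkat cells carrying HiBiT-tagged IKZF2 were exposed to serially diluted compound for 24 h at 37 °C. Remaining IKZF2 was measured by Nano-Glo HiBiT lytic luminescence after 10-20 min at room temperature. Signal was normalized to DMSO, and IC50 came from a four-parameter variable-slope fit.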

Sequence of IKZF2 (Q9UKS7 whole entry): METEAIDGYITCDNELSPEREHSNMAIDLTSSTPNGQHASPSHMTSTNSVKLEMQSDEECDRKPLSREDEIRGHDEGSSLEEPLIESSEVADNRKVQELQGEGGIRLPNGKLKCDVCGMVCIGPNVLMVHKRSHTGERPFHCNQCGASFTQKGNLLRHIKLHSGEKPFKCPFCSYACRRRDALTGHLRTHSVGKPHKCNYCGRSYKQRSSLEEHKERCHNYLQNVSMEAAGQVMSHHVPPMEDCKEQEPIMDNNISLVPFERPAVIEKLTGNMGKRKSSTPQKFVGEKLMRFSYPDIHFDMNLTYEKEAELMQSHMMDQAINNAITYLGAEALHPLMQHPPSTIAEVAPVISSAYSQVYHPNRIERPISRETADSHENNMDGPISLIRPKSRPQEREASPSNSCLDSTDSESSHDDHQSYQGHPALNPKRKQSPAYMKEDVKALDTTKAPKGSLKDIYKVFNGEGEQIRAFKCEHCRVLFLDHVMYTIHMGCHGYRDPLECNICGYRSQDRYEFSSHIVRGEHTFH
Sequence of IKZF2 (Q96SW2 whole entry): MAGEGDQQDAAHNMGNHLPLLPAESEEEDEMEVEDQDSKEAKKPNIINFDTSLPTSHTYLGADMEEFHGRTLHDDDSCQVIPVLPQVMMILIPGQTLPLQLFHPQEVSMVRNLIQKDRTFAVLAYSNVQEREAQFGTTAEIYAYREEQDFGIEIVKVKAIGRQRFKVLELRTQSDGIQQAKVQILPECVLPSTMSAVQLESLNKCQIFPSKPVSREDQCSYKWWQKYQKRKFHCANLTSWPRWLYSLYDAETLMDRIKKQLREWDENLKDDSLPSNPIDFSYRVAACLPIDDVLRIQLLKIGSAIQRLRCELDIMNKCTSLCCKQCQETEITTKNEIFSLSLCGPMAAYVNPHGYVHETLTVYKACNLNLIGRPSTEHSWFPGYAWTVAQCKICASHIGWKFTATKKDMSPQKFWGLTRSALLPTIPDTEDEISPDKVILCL
Sequence of IKZF2 (Q16531 whole entry partner): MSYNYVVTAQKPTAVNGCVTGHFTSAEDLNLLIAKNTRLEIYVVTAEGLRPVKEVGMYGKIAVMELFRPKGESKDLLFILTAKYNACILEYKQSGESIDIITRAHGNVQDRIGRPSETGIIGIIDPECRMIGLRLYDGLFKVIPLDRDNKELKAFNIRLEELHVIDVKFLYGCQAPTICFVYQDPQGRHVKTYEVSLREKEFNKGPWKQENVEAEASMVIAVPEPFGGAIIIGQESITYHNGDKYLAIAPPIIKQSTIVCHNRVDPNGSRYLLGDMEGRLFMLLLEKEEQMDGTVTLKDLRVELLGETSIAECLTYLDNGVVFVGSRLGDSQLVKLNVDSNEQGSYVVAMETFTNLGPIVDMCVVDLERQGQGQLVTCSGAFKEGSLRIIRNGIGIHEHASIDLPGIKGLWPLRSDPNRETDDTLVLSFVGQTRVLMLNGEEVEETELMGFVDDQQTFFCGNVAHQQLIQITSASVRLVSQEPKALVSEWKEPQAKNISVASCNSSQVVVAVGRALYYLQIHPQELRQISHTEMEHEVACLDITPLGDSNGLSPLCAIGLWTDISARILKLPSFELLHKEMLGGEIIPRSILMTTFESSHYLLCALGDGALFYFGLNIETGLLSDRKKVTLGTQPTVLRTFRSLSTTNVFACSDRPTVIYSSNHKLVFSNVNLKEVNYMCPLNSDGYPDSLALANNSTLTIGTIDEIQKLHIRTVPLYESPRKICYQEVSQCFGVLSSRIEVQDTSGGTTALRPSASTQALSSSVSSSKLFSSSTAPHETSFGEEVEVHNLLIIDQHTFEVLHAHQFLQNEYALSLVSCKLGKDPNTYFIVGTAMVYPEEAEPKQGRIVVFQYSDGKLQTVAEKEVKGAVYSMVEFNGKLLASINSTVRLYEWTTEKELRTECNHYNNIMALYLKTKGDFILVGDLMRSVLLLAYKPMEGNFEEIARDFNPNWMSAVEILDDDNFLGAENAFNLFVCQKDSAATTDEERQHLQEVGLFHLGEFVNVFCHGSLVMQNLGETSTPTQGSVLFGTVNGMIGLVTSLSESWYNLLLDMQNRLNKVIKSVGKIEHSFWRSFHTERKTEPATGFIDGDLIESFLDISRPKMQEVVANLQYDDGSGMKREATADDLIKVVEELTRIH

| SMILES | DC50 | Dmax |
| --- | --- | --- |
| Cn1cc2cccc(CN3CCC4(CC3)COc3c4ccc4c3CN(C3CCC(=O)NC3=O)C4=O)c2n1 (stereo not shown) [Compound A75, 3-(1′-((2-methyl-2H-indazol-7-yl)methyl)-6-oxo-6,8-dihydro-2H,7H-spiro[furo[2,3-e]isoindole-3,4′-piperidin]-7-yl)piperidine-2,6-dione] | 50 to 200 nM | 60 to 80% |
| O=C1CCC(N2Cc3c(ccc4c3OCC43CCN(Cc4cccc5ccnn45)CC3)C2=O)C(=O)N1 (stereo not shown) [Compound A76, 3-(6-oxo-1′-(pyrazolo[1,5-]pyridin-7-ylmethyl)-6,8-dihydro-2H,7H-spiro[furo[2,3-e]isoindole-3,4′-piperidin]-7-yl)piperidine-2,6-dione] | > 500 nM | < 40% |
| O=C1CCC(N2Cc3c(ccc4c3OCC43CCN(Cc4cccn5ccnc45)CC3)C2=O)C(=O)N1 (stereo not shown) [Compound A77, 3-(1′-(imidazo[1,2-a]pyridin-8-ylmethyl)-6-oxo-6,8-dihydro-2H,7H-spiro[furo[2,3-e]isoindole-3,4′-piperidin]-7-yl)piperidine-2,6-dione] | > 500 nM | 40 to 60% |
| O=C1CCC(N2Cc3c(ccc4c3OCC43CCN(Cc4ccn5ccnc5c4)CC3)C2=O)C(=O)N1 (stereo not shown) [Compound A78] | 200 to 500 nM | 40 to 60% |
| O=C1CCC(N2Cc3c(ccc4c3OCC43CCN(Cc4ccc5nccn5c4)CC3)C2=O)C(=O)N1 (stereo not shown) [Compound A79] | > 500 nM | < 40% |
| O=C1CCC(N2Cc3c(ccc4c3OCC43CCN(Cc4ccn5nccc5c4)CC3)C2=O)C(=O)N1 (stereo not shown) [Compound A80, 3-(6-oxo-1′-(pyrazolo[1,5-a]pyridin-5-ylmethyl)-6,8-dihydro-2H,7H-spiro[furo[2,3-e]isoindole-3,4′-piperidin]-7-yl)piperidine-2,6-dione] | > 500 nM | < 40% |
| O=C1CCC(N2Cc3c(ccc4c3OCC43CCN(Cc4cnc(-c5ccccc5)s4)CC3)C2=O)C(=O)N1 (stereo not shown) [Compound A81, 3-(6-oxo-1′-((2-phenylthiazol-5-yl)methyl)-6,8-dihydro-2H,7H-spiro[furo[2,3-e]isoindole-3,4′-piperidin]-7-yl)piperidine-2,6-dione] | > 500 nM | < 40% |
| O=C1CCC(N2Cc3c(ccc4c3OCC43CCN(Cc4csc(-c5ccccc5)n4)CC3)C2=O)C(=O)N1 (stereo not shown) [Compound A82, 3-(6-oxo-1′-((2-phenylthiazol-4-yl)methyl)-6,8-dihydro-2H,7H-spiro[furo[2,3-e]isoindole-3,4′-piperidin]-7-yl)piperidine-2,6-dione] | > 500 nM | < 40% |
| O=C1CCC(N2Cc3c(ccc4c3OCC43CCN(Cc4coc(-c5ccccc5)n4)CC3)C2=O)C(=O)N1 (stereo not shown) [Compound A83, 3-(6-oxo-1′-((2-phenyloxazol-4-yl)methyl)-6,8-dihydro-2H,7H-spiro[furo[2,3-e]isoindole-3,4′-piperidin]-7-yl)piperidine-2,6-dione] | > 500 nM | < 40% |
| O=C1CCC(N2Cc3c(ccc4c3OCC43CCN(Cc4c[nH]c(-c5ccccc5)n4)CC3)C2=O)C(=O)N1 (stereo not shown) [Compound A84, 3-(6-oxo-1′-((2-phenyl-1H-imidazol-4-yl)methyl)-6,8-dihydro-2H,7H-spiro[furo[2,3-e]isoindole-3,4′-piperidin]-7-yl)piperidine-2,6-dione] | > 500 nM | 40 to 60% |
| O=C1CCC(N2Cc3c(ccc4c3OCC43CCN(Cc4nc(-c5ccccc5)cs4)CC3)C2=O)C(=O)N1 (stereo not shown) [Compound A85, 3-(6-oxo-1′-((4-phenylthiazol-2-yl)methyl)-6,8-dihydro-2H,7H-spiro[furo[2,3-e]isoindole-3,4′-piperidin]-7-yl)piperidine-2,6-dione] | > 500 nM | < 40% |
| O=C1CCC(N2Cc3c(ccc4c3OCC43CCN(Cc4cccc(Oc5ccccc5)c4)CC3)C2=O)C(=O)N1 (stereo not shown) [Compound A86, 3-(6-oxo-1′-(3-phenoxybenzyl)-6,8-dihydro-2H,7H-spiro[furo[2,3-e]isoindole-3,4′-piperidin]-7-yl)piperidine-2,6-dione] | > 500 nM | 40 to 60% |
| CC(C)(C)c1cccc(CN2CCC3(CC2)COc2c3ccc3c2CN(C2CCC(=O)NC2=O)C3=O)c1 (stereo not shown) [Compound A88, 3-(1′-(3-(tert-butyl)benzyl)-6-oxo-6,8-dihydro-2H,7H-spiro[furo[2,3-e]isoindole-3,4′-piperidin]-7-yl)piperidine-2,6-dione] | > 500 nM | < 40% |
| O=C1CCC(N2Cc3c(ccc4c3OCC43CCN(CC4CCC(c5ccccc5)CC4)CC3)C2=O)C(=O)N1 (stereo not shown) [Compound A89, 3-(6-oxo-1′-((4-phenylcyclohexyl)methyl)-6,8-dihydro-2H,7H-spiro[furo[2,3-e]isoindole-3,4′-piperidin]-7-yl)piperidine-2,6-dione] | 50 to 200 nM | 60 to 80% |
| O=C1CCC(N2Cc3c(ccc4c3OCC43CCN(Cc4cccc(OC(F)F)c4)CC3)C2=O)C(=O)N1 (stereo not shown) [Compound A90, 3-(1′-(3-(difluoromethoxy)benzyl)-6-oxo-6,8-dihydro-2H,7H-spiro[furo[2,3-e]isoindole-3,4′-piperidin]-7-yl)piperidine-2,6-dione] | > 500 nM | < 40% |
| O=C1CCC(N2Cc3c(ccc4c3OCC43CCN(Cc4cccc(Br)c4)CC3)C2=O)C(=O)N1 (stereo not shown) [Compound A91, 3-(1′-(3-bromobenzyl)-6-oxo-6,8-dihydro-2H,7H-spiro[furo[2,3-e]isoindole-3,4′-piperidin]-7-yl)piperidine-2,6-dione] | < 50 nM | 60 to 80% |
| CCOc1cccc(CN2CCC3(CC2)COc2c3ccc3c2CN(C2CCC(=O)NC2=O)C3=O)c1 (stereo not shown) [Compound A92, 3-(1′-(3-ethoxybenzyl)-6-oxo-6,8-dihydro-2H,7H-spiro[furo[2,3-e]isoindole-3,4′-piperidin]-7-yl)piperidine-2,6-dione] | 50 to 200 nM | 40 to 60% |
| O=C1CCC(N2Cc3c(ccc4c3OCC43CCN(Cc4cccc(CF)c4)CC3)C2=O)C(=O)N1 (stereo not shown) [Compound A93, 3-(1′-(3-(fluoromethyl)benzyl)-6-oxo-6,8-dihydro-2H,7H-spiro[furo[2,3-e]isoindole-3,4′-piperidin]-7-yl)piperidine-2,6-dione] | 50 to 200 nM | 60 to 80% |
| O=C1CCC(N2Cc3c(ccc4c3OCC43CCN(Cc4cccc(C(F)F)c4)CC3)C2=O)C(=O)N1 (stereo not shown) [Compound A94, 3-(1′-(3-(difluoromethyl)benzyl)-6-oxo-6,8-dihydro-2H,7H-spiro[furo[2,3-e]isoindole-3,4′-piperidin]-7-yl)piperidine-2,6-dione] | 200 to 500 nM | 40 to 60% |
| CNC(=O)c1cccc(CN2CCC3(CC2)COc2c3ccc3c2CN(C2CCC(=O)NC2=O)C3=O)c1 (stereo not shown) [Compound A95] | > 500 nM | 40 to 60% |
| O=C1CCC(N2Cc3c(ccc4c3OCC43CCN(Cc4cccc(N5CCCC5)c4)CC3)C2=O)C(=O)N1 (stereo not shown) [Compound A96, 3-(6-oxo-1′-(3-(pyrrolidin-1-yl)benzyl)-6,8-dihydro-2H,7H-spiro[furo[2,3-e]isoindole-3,4′-piperidin]-7-yl)piperidine-2,6-dione] | 50 to 200 nM | 60 to 80% |
| O=C1CCC(N2Cc3c(ccc4c3OCC43CCN(Cc4cccc(N5CCOCC5)c4)CC3)C2=O)C(=O)N1 (stereo not shown) [Compound A97, 3-(1′-(3-morpholinobenzyl)-6-oxo-6,8-dihydro-2H,7H-spiro[furo[2,3-e]isoindole-3,4′-piperidin]-7-yl)piperidine-2,6-dione] | > 500 nM | 40 to 60% |
| O=C1CCC(N2Cc3c(ccc4c3OCC43CCN(Cc4cccc(C(=O)O)c4)CC3)C2=O)C(=O)N1 (stereo not shown) [Compound A99, 3-((7-(2,6-dioxopiperidin-3-yl)-6-oxo-7,8-dihydro-2H,6H-spiro[furo[2,3-e]isoindole-3,4′-piperidin]-1′-yl)methyl)benzoic acid] | > 500 nM | < 40% |
| O=C1CCC(N2Cc3c(ccc4c3OCC43CCN(Cc4ccccc4Oc4ccccc4)CC3)C2=O)C(=O)N1 (stereo not shown) [Compound A100, 3-(6-oxo-1′-(2-phenoxybenzyl)-6,8-dihydro-2H,7H-spiro[furo[2,3-e]isoindole-3,4′-piperidin]-7-yl)piperidine-2,6-dione] | > 500 nM | < 40% |
| O=C1CCC(N2Cc3c(ccc4c3OCC43CCN(Cc4cccc(Oc5ccccn5)c4)CC3)C2=O)C(=O)N1 (stereo not shown) [Compound A101, 3-(6-oxo-1′-(3-(pyridin-2-yloxy)benzyl)-6,8-dihydro-2H,7H-spiro[furo[2,3-e]isoindole-3,4′-piperidin]-7-yl)piperidine-2,6-dione] | < 50 nM | 60 to 80% |
| O=C1CCC(N2Cc3c(ccc4c3OCC43CCN(Cc4cccc(-c5ccccc5)c4)CC3)C2=O)C(=O)N1 (stereo not shown) [Compound A102, 3-(1′-([1,1′-biphenyl]-3-ylmethyl)-6-oxo-6,8-dihydro-2H,7H-spiro[furo[2,3-e]isoindole-3,4′-piperidin]-7-yl)piperidine-2,6-dione] | 200 to 500 nM | 40 to 60% |
| O=C1CCC(N2Cc3c(ccc4c3OCC43CCN(Cc4cccc(-c5ccccn5)c4)CC3)C2=O)C(=O)N1 (stereo not shown) [Compound A103, 3-(6-oxo-1′-(3-(pyridin-2-yl)benzyl)-6,8-dihydro-2H,7H-spiro[furo[2,3-e]isoindole-3,4′-piperidin]-7-yl)piperidine-2,6-dione] | 200 to 500 nM | 40 to 60% |
| O=C1CCC(N2Cc3c(ccc4c3OCC43CCN(Cc4cccc(-c5cn[nH]c5)c4)CC3)C2=O)C(=O)N1 (stereo not shown) [Compound A104, 3-(1′-(3-(1H-pyrazol-4-yl)benzyl)-6-oxo-6,8-dihydro-2H,7H-spiro[furo[2,3-e]isoindole-3,4′-piperidin]-7-yl)piperidine-2,6-dione] | < 50 nM | > 80% |
| O=C1CCC(N2Cc3c(ccc4c3OCC43CCN(Cc4cccc(-c5nccs5)c4)CC3)C2=O)C(=O)N1 (stereo not shown) [Compound A106, 3-(6-oxo-1′-(3-(thiazol-2-yl)benzyl)-6,8-dihydro-2H,7H-spiro[furo[2,3-e]isoindole-3,4′-piperidin]-7-yl)piperidine-2,6-dione] | < 50 nM | 60 to 80% |
